Measurements published in the supplement of paper PMC10307832.

What was measured:
Assay in all cases: relative viability (nuclei count vs DMSO), 5 days (fraction); higher = more cells survive
[1] = compound: CC1=NN=C(O1)C2=NN=C(C=C2)N3CCC(CC3)OC4=C(C=CC(=C4)F)Cl + CCNC(=O)c1noc(-c2cc(C(C)C)c(O)cc2O)c1-c1ccc(CN2CCOCC2)cc1 [Luminespib] (partner 0.01 µM)
Method in brief: (§1)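 Relative viability divides the nuclei count in treated wells by that in vehicle wells. Lung cancer cell lines were seeded in 1536-well plates, dosed by pin tool the next day, and fixed and stained after 5 days in one step with final 0.05% Triton X-100, 1% formaldehyde and 1 ug/ml Hoechst. Dosing was a single drug or a fixed anchor-drug dose plus five library-drug doses (not always all listed) in √10 steps, and values are medians of duplicate plates imaged at 4×.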

[2] = compound: CC1=NN=C(O1)C2=NN=C(C=C2)N3CCC(CC3)OC4=C(C=CC(=C4)F)Cl + COc1cc2c(Oc3ccc(NC(=O)C4(C(=O)Nc5ccc(F)cc5)CC4)cc3F)ccnc2cc1OCCCN1CCOCC1 [Foretinib] (partner 0.25 µM)
Method in brief: as §1

[3] = compound: CC1=NN=C(O1)C2=NN=C(C=C2)N3CCC(CC3)OC4=C(C=CC(=C4)F)Cl + CS(=O)(=O)N1CCN(Cc2cc3nc(-c4cccc5[nH]ncc45)nc(N4CCOCC4)c3s2)CC1 [Pictilisib] (partner 1 µM)
Method in brief: as §1

[4] = compound: CC1=NN=C(O1)C2=NN=C(C=C2)N3CCC(CC3)OC4=C(C=CC(=C4)F)Cl + C[C@@H](Oc1cc(-c2cnn(C3CCNCC3)c2)cnc1N)c1c(Cl)ccc(F)c1Cl [Crizotinib] (partner 1 µM)
Method in brief: as §1

[5] = compound: CC1=NN=C(O1)C2=NN=C(C=C2)N3CCC(CC3)OC4=C(C=CC(=C4)F)Cl + C[C@]1(O)C[C@@H](c2nc(-c3ccc4ccc(-c5ccccc5)nc4c3)c3c(N)nccn32)C1 [Linsitinib] (partner 1 µM)
Method in brief: as §1

UMC-11
relative viability ([1]; first compound 0.253 µM): 0.523 | relative viability ([1]; first compound 0.8 µM): 0.572 | relative viability ([1]; first compound 2.53 µM): 0.453 | relative viability ([1]; first compound 8 µM): 0.552 | relative viability ([2]; first compound 0.253 µM): 0.539 | relative viability ([2]; first compound 0.8 µM): 0.57 | relative viability ([2]; first compound 2.53 µM): 0.543 | relative viability ([2]; first compound 8 µM): 0.501 | relative viability ([3]; first compound 0.253 µM): 0.723 | relative viability ([3]; first compound 0.8 µM): 0.65 | relative viability ([3]; first compound 2.53 µM): 0.797 | relative viability ([3]; first compound 8 µM): 0.684 | relative viability ([4]; first compound 0.253 µM): 0.468 | relative viability ([4]; first compound 0.8 µM): 0.474 | relative viability ([4]; first compound 2.53 µM): 0.476 | relative viability ([4]; first compound 8 µM): 0.487 | relative viability ([5]; first compound 0.253 µM): 0.758 | relative viability ([5]; first compound 0.8 µM): 0.732 | relative viability ([5]; first compound 2.53 µM): 0.714 | relative viability ([5]; first compound 8 µM): 0.744
